Legend:
[1] = test system: K562; assay: Growth of human erythroid cell line K562; assay type: cell-based; details: for growth of K562: 0.5 mM, over 3 days
Protocol: Such activities might limit their utility for treatment of anemias such as occur in thalassemia, but alternatively would be useful for anticancer effects. […]
(§1) Cell viability analyses were performed using fluorescent staining to detect living cells. Cells were in log phase of growth in 6-well dishes when used in proliferation assays. For enumeration of living cells, wells were washed once with medium to remove nonadherent or dead cells. Remaining live cells were labeled with Calcein-AM for 20 minutes at 37° C. and washed once. Fluorescence intensity of adherent live cells was read on a CytoFluor 2300 Fluorescence Plate Scanner (Millipore; Bedford, Mass.) at excitation and emission wavelengths of 485 and 530 nm, respectively. The fluorescence intensity of a well was proportional to the number of living cells in the well. Background fluorescence was measured separately for each plate and subtracted from all readings. Each experiment was performed in triplicate or quadruplicate. The standard deviation (SD) of repetitive readings was less than 30% of the mean.
At higher concentrations, still easily achievable in vivo, arginine butyrate (0.5 mM) and dihydrocinnamic acid (greater than 0.5 mM) inhibited growth of this tumor cell line by approximately 50%. Therefore, these compounds are also useful as anti-tumor agents.

[2] = test system: fetal globin mRNA (human erythroleukemia cells); assay: Fetal globin mRNA in erythroleukemia cells (primer extension); assay type: cell-based
Protocol: Compounds were tested for increased expression of the human globin genes in human erythroid cells. In addition, as the cell line being tested is a tumor cell line, the assay determines if differentiation, a growth inhibitory effect on cancer cells, is induced by the compounds tested. Human erythroleukemia cells were cultured in RPMI media with 10% fetal calf serum alone or with treatment with various compounds for 4 days. Globin MRNA was quantitated by primer extension analysis. Fetal globin mRNA was compared to the amount of fetal globin mRNA produced in untreated cells during the same culture period. The quantitation was expressed as a percent of alpha globin MRNA which was constant. Results are expressed proportional to α-globin mRNA (Table 3).

[3] = test system: human erythroid cells; assay: DNA fragmentation by flow cytometry (degradation of DNA); assay type: cell-based
Protocol: Such activities might limit their utility for treatment of anemias such as occur in thalassemia, but alternatively would be useful for anticancer effects. To determine cell viability, human erythroid cells were cultured in the presence and absence of these compounds for 4 days and the amount of DNA fragmentation which occurred was measured.
Flow cytometric determination of DNA profiles and DNA fragmentation were determined. Cytometric analysis was performed with a FACScan (Becton Dickenson Instruments; Columbia, Md.). The data analysis and display were performed using the Cell-Fit software program. Approximately 0.5×10^6 cells were washed twice with PBS and resuspended in 1 ml of 1% sodium citrate, 0.1% Triton X-100 and 50 μg of propidium iodide/ml. Resulting permeabilized cells were kept in the dark at 4° C. overnight before DNA profile or DNA fragmentation analysis (Table 4).

[4] = test system: K562 cells; assay: Dose response of cell growth, trypan blue exclusion (FIG. 3); assay type: cell-based, human; details: up to 2.0 mM, day 4
Protocol: FIG. 3 Cell viability as determined by the comparative numbers of total and viable K562 cells in the presence of increasing concentrations of (A) phenoxyacetic acid, (B) dihydrocinnamic acid, (C) butyric acid ethyl ester, (D) arginine butyrate, and (E) isobutyramide.
Dose response curves at dosages of up to 2.0 mM were also determined for phenoxyacetic acid (PAA; FIG. 3A), dihydrocinnamic acid (DHC; FIG. 3B), butyric acid ethyl ester (BAEE; FIG. 3C), arginine butyrate (AB; FIG. 3D) and isobutyramide (IBT; FIG. 3E). Cells were counted on day 4 of treatment and viable cells identified by trypan blue exclusion.

[5] = test system: fetal globin (gamma globin); assay: Fetal globin expression in erythroid progenitor cells from cord blood; assay type: cell-based, human
Protocol: Compositions were tested for activity in inducing fetal globin expression and protein production in erythroid progenitor cells cultured from human cord blood and analyzed as described by S. P. Perrine et al. (Blood 74: 454-60, 1989). Briefly, mononuclear cells were cultured in IMDM with 30% fetal calf serum and 2 units erythropoietin per ml to induce erythroid differentiation. Colonies were harvested on day 12-13, incubated with radio-labelled (^3 H) leucine, and further incubated in leucine-free media, still in the presence of compounds, overnight. Globin composition in the erythroid cells was analyzed by laser densitometry of electrophoretically separated globin chains stained with Coomassie blue, and by autoradiography. Treated cells were incubated for 12-13 days (Table 2, Experiments A and B) or overnight (Table 2, Experiment C) in the presence of the indicated compounds and compared to untreated control cells cultured from the same human subject.

[6] = test system: erythroid cells (peripheral blood); assay: Erythroid cell viability by fluorescent staining (Calcein-AM), FIG. 2; assay type: cell-based, human; details: 0.5 mM, vs untreated controls
Protocol: FIG. 2 Peripheral blood cell viability after incubation with arginine butyrate, dihydrocinnamic acid, phenoxyacetic acid and butyric acid ethyl ester.
as §1, with “Compositions were tested for the ability to directly stimulate erythroid cell growth. Cell growth stimulation is a useful property for an agent to be used to treat anemias and distinguishes such agents from the cytotoxic drugs currently being tested for treatment of hemoglobinopathies. Cell viability” for “Cell viability”, “labeled with 2 μM 2',7'-bis-(carboxyethyl)-5-(and 6)-carboxy-fluorescein acetoxy-methyl ester (Calcein-AM) (Molecular Probes; Eugene, Oreg.) for 20” for “labeled with Calcein-AM for 20”, “intensity of live cells” for “intensity of adherent live cells”, “the mean. Results are depicted in FIG. 2.” for “the mean.”

[7] = test system: BFU-e (burst forming unit-erythroid); assay: BFU-e stimulation (colony growth) in cultured peripheral blood mononuclear cells; assay type: cell-based; details: Homo sapiens, PBMC; 0.1 mM; read-out: more BFU-e colonies from the same number of mononuclear cells than control cultures
Protocol: Peripheral blood was collected from normal volunteers and patients with anemia due to sickle cell disease or thalassemia Mononuclear cells were isolated by Ficoll-Hypaque (Pharmacia Biotech; Piscataway, N.J.) centrifugation and cultured in Iscove's Modified Dulbecco's Media (IMDM; GIBCO/BRL; Grand Island, N.Y.) supplemented with 10% fetal calf serum, 300 μg/ml glutamine, 3 units/ml IL 3 (Amgen; Thousand Oaks, Calif.), and 2 units/ml erythropoietin (Terry Fox Labs; Vancouver, B.C.). Chemical compounds were obtained from Sigma Chemical (St. Louis, Mo.) or Aldrich Chemical (Milwaukee, Wis.), unless otherwise indicated, and formulated into pharmaceutical compositions by dissolving in aqueous solutions of media or sterile water pH adjusted to about 7.4. Solutions were sterilized by passage at least once through 0.22 micron Nalgene filters and added to cell cultures at final concentrations that are pharmaceutically achievable in vivo (typically between about 0.1 mM to 2.0 MM). Cells were incubated with compounds for between 13-14 days at 37° C. in humidified 5% CO2, and fed and passed, as necessary. Colony growth, proportion of fetal globin-expressing cells and amounts of fetal globin production were assayed. Results are presented in Table 1 as BFU-e stimulation (colony growth). […]

[8] = test system: anemic baboon; assay: In vivo reticulocyte proliferation, globin expression and blood counts in anemic (phlebotomized) baboons; details: 4 days
Protocol: Experiments were performed to determine if administration of the chemical compositions could induce fetal globin gene expression in an in vivo model similar to humans (S. P. Perrine et al., Brit. J. Haematol. 88:555-61, 1994). Briefly, chemicals were prepared as sterile pharmaceutical solutions in pH adjusted sterile water. A variety of chemical compositions were administered sequentially to some baboons. After administration of one compound, a wash-out period with no compound administration was maintained until reticulocytes returned to base line prior to administration of the next compound. This was done, at least partly, to compare the magnitude of response which occurred within the same individual animal to different compounds.
Briefly, juvenile female baboons (2 years old) were catheterized with arterial and venous catheters and phlebotomized gradually every day to maintain a moderate anemia of 7.0 to 7.5 grams hemoglobin/dl. Fetal reticulocytes, the newly produced red blood cells containing fetal globin, were assayed using a monoclonal antibody against fetal globin (HbF) as described by G. Dover et al. (Blood 67:735-38, 1986). Briefly, blood was stained with two antibodies, one specific for reticulocytes and another against fetal globin protein. The amount of antibody bound cells was determined by FACS analysis. Globin chain synthesis was assayed as described by J. B. Clegg et al. (J. Mol. Biol. 19:91-108, 1966). Briefly, reticulocytes were radio-labeled with ^3 H-leucine which was incorporated in equal proportions into actively synthesized globin chains. After incubation in leucine-free media, cells were washed, and globin proteins were separated and purified by column chromatography. Radioactivity incorporated into each peak is compared and the ratios of gamma to gamma plus beta globin calculated. Each animal served as its own control with baseline monitoring assays performed for 4-6 weeks before any drug was administered. Phlebotomy was continued daily, so that peripheral HbF levels in the animals were not considered to be accurate over the short treatment time-frames and were not monitored. Safety monitoring was performed by frequent physical examinations, quantitation of food eaten, activity and frequent chemistry and hematology monitoring. Complete blood counts were assayed before, during and after treatment. Results presented were not adjusted to account for the daily phlebotomy.

[9] = test system: hemoglobin polymerization; details: artificially deoxygenated blood; cited from earlier work
[10] = Exp. A, 0.1 mM, 12-13 days, untreated 76.0%
[11] = Exp. C, 0.1 mM, overnight, untreated 52.0%

CCCC(=O)OCC [BAEE, butyric acid ethyl ester]
growth of K562 [1]: either did not inhibit, or slightly enhanced growth
induction of fetal globin mRNA [2]: significantly increased the induction of fetal globin MRNA
stimulation of fetal globin expression relative to AB ([2]; 1.0 mM): over two times greater than even AB alone
Gamma/Alpha ([2]; 1.0 mM, 4 days, untreated 0.46): 0.90
activation at 1000 µM ([2]; Homo sapiens, 96 h, 1.0 mM, 4 days, read-out: Gamma Globin mRNA (increase)): 44%
proportion of degraded DNA ([3]; 1.0 mM to 2.0 mM, untreated 26%): 13.8%
Degraded DNA ([3]; 2.0 mM, 4 days, control 26%, 22%): 13.8%
DNA fragmentation / cell viability / DNA integrity ([3]; DNA fragmentation assays): reduce DNA fragmentation
proliferation [4]: did not significantly inhibit proliferation
Gamma/(Gamma + Beta) [5, 10]: 89.5%
Gamma/(Gamma + Beta) ([5]; Exp. B, 0.2 mM, 12-13 days, untreated 25.4%, 27.5%): 74.0%
Gamma/(Gamma + Beta) [5, 11]: 64.6%
erythroid cell growth and proliferation [6]: either had no effect or stimulated erythroid cell growth and proliferation

O=C(O)CCc1ccccc1 [DHC, Dihydrocinnamic acid]
growth of K562 [1]: either did not inhibit, or slightly enhanced growth
growth inhibition of K562 ([1]; greater than 0.5 mM): approximately 50%
activation at 100 µM [7]: 124%
red blood cell count ([8]; 1,000 mg/kg/day i.v., from 2.3): 2.73 10^6 cells/μl
Total hemoglobin ([8]; 1,000 mg/kg/day i.v., from 6.6): 7.3 grams/dl
packed red blood cell volume ([8]; 1,000 mg/kg/day i.v., from 20.9%): 22.7 % of the blood
Fetal reticulocytes ([8]; 300 to 500 mg/kg per day infused, from 10%): 17%
Gamma/(Gamma + Beta) [5, 10]: 88.0%
Gamma/(Gamma + Beta) [5, 11]: 76.0%
Gamma/(Gamma + Beta) ([5]; Exp. C, 0.2 mM, overnight, untreated 52.0%): 71.9%
Gamma/(Gamma + Beta) ([5]; Exp. C, 0.5 mM, overnight, untreated 52.0%): 71.3%
erythroid cell growth and proliferation [6]: either had no effect or stimulated erythroid cell growth and proliferation

CC(C)(Oc1ccc(Cl)cc1)C(=O)O [clofibric acid]
inhibition of polymerization [9]: inhibit polymerization

O=C(O)COc1ccc(Cl)cc1 [p-chloro phenoxy acetic acid]
inhibition of polymerization [9]: inhibit polymerization

From patent US6011000A, “Compositions for the treatment of blood disorders” (priority 1995, dated 2000)
